Assay results as given in PubChem BioAssay (NCI).
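Exposure lasted 48 hours, with cells grown in 96-well plates and compounds tested at five concentrations. TGI denotes the concentration required for complete inhibition of growth.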

Assays:
Assay in all cases: NCI tumour cell line growth inhibition, 48 h
[1] = system: HOP-62 NSCLC
[2] = system: SF-295 CNS
[3] = system: HT29 colon
[4] = system: EKVX NSCLC
[5] = system: NCI-H226 lung
[6] = system: MDA-MB-435
[7] = system: UACC-62 melanoma
[8] = system: OVCAR-8 ovarian
[9] = system: NCI-H522 lung
[10] = system: SK-OV-3 ovarian
[11] = system: HCT-15 colon
[12] = system: PC-3 prostate
[13] = system: A498 renal
[14] = system: RXF 393 renal
[15] = system: M14 melanoma
[16] = system: U251 CNS
[17] = system: NCI-H460 lung
[18] = system: NCI-H23 lung
[19] = system: SK-MEL-2 melanoma
[20] = system: UO-31 renal
[21] = system: K-562 leukemia
[22] = system: SNB-75 CNS
[23] = system: ACHN renal
[24] = system: MALME-3M melanoma
[25] = system: HL-60(TB) leukemia
[26] = system: SK-MEL-28 melanoma
[27] = system: BT-549 breast
[28] = system: HS 578T breast
[29] = system: OVCAR-3 ovarian
[30] = system: MOLT-4 leukemia
[31] = system: HCT-116 colon
[32] = system: MCF7 breast
[33] = system: MDA-MB-231 breast
[34] = system: SF-539 CNS
[35] = system: SW-620 colon
[36] = system: DU-145 prostate
[37] = system: RPMI-8226 leukemia
[38] = system: HOP-92 NSCLC
[39] = system: SF-268 CNS
[40] = system: LOX IMVI melanoma
[41] = system: OVCAR-5 ovarian
[42] = system: SNB-19 CNS
[43] = system: SN12C renal
[44] = system: A549 NSCLC
[45] = system: SK-MEL-5 melanoma
[46] = system: NCI/ADR-RES ovarian
[47] = system: COLO 205 colon
[48] = system: HCC-2998 colon
[49] = system: CAKI-1 renal
[50] = system: UACC-257 melanoma
[51] = system: MDA-N
[52] = system: T-47D breast
[53] = system: OVCAR-4 ovarian
[54] = system: TK-10 renal
[55] = system: IGROV1 ovarian
[56] = system: KM12 colon

Structure (SMILES): O=C(CCl)N1CCCCC1C1(c2cc3ccccc3[nH]2)OCCO1 (stereo unspecified)
- TGI [1]: 20.6 µM
- TGI [2]: 11.5 µM
- TGI [3]: 17.6 µM
- TGI [4]: 5.74 µM
- TGI [5]: 16.3 µM
- TGI [6]: 17.8 µM
- TGI [7]: 7.87 µM
- TGI [8]: 17.6 µM
- TGI [9]: 0.448 µM
- TGI [10]: 20.2 µM
- TGI [11]: 33.9 µM
- TGI [12]: 8.83 µM
- TGI [13]: 11.8 µM
- TGI [14]: 12.8 µM
- TGI [15]: 13.6 µM
- TGI [16]: 12.7 µM
- TGI [17]: > 34.5 µM
- TGI [18]: 8.47 µM
- TGI [19]: 20.2 µM
- TGI [20]: 11.3 µM
- TGI [21]: 15.9 µM
- TGI [22]: 7.3 µM
- TGI [23]: 13.9 µM
- TGI [24]: 14.5 µM
- TGI [25]: > 100 µM
- TGI [26]: 35.6 µM
- TGI [27]: 6.83 µM
- TGI [28]: 13.9 µM
- TGI [29]: 5.34 µM
- TGI [30]: 15.8 µM
- TGI [31]: 10.2 µM
- TGI [32]: 8.97 µM
- TGI [33]: 12.8 µM
- TGI [34]: 4.51 µM
- TGI [35]: 58.9 µM
- TGI [36]: 9.89 µM
- TGI [37]: 13.7 µM
- TGI [38]: 24.7 µM
- TGI [39]: 15.4 µM
- TGI [40]: 0.141 µM
- TGI [41]: 17.2 µM
- TGI [42]: 31.5 µM
- TGI [43]: 9.85 µM
- TGI [44]: 23.3 µM
- TGI [45]: 22.6 µM
- TGI [46]: 14.6 µM
- TGI [47]: 12.1 µM
- TGI [48]: 26.9 µM
- TGI [49]: 1.86 µM
- TGI [50]: 13.1 µM
- TGI [51]: 8.81 µM
- TGI [52]: 26 µM
- TGI [53]: 9.28 µM
- TGI [54]: 10.1 µM
- TGI [55]: 0.558 µM
- TGI [56]: 8.48 µM
